# Experimental data: patent publication US20240100104A1, “METHODS AND COMPOSITION FOR THE TREATMENT OF AUTISM SPECTRUM DISORDER” (The General Hospital Corporation, priority 2020, published 2024)
# Columns and labels:
# patients with ASD = assay: Clinical Global Impression-Improvement (CGI-I); assay type: in vivo, human; settings: vs control group; P<0.05 only for combination
# Description: FIG. 2. Proportion of subjects displaying improvement in CGI-I overtime among all subjects within a treatment condition.
# Clinical Global Impression (CGI) was assessed to evaluate ASD symptoms and the relative extent of improvement in symptoms at each visiting time. […] The waterfall data of CGI score reduction in each group is shown in supplement FIG. 6.
# This clinical trial is a randomized, double-blind, and placebo-controlled study in accordance with the Consolidated Standards of Reporting Trials (CONSORT) guidelines. Subjects were randomized to two groups with 1:1 ratio into this two-stage study. To achieve a statistical power of 80% for primary outcomes with a large effect size of 0.8 (Cohen's d) assumed, a total of 60 participants (30 in each arm) were required. However, as we are primarily interested in studying the preliminary effects of the proposed treatment, we enrolled and randomized 35 subjects who were included in the data analysis. In stage 1, the probiotics group received oral probiotics PS128 while the placebo group received oral placebo for 16 weeks. In stage 2, both groups continued their respective administration and simultaneously added intranasal oxytocin spray. The treatment proceeded for a total of 28 weeks with 3 visits for outcomes measurement at 0, 16 weeks, and 28 weeks (V1, V2, and V3, respectively). […]
# mouse models of ASD = settings: two mouse models of ASD; cited from earlier work
# [1] = 32 IU per day, patients age 3-8 years old; cited from earlier work
structure (smiles),measurement,setting,value
"CC[C@H](C)[C@@H]1NC(=O)[C@H](Cc2ccc(O)cc2)NC(=O)[C@@H](N)CSSC[C@@H](C(=O)N2CCC[C@H]2C(=O)N[C@@H](CC(C)C)C(=O)NCC(N)=O)NC(=O)[C@H](CC(N)=O)NC(=O)[C@H](CCC(N)=O)NC1=O [OXT, Oxytocin]",proportion of subjects showing improvement in CGI-I (CGI-I≤3),patients with ASD,"non-significant, though a trend of improvement"
same,effect on sociability,mouse models of ASD,enhanced sociability
same,safety of dosage,[1],safe and adequate
